The source of these data is patent US11535599B2, “Benzisoxazole derivative” (Sumitomo Pharma Co., Ltd., priority 2020, dated 2022).

The test system of assay [1] is reserpine-induced Parkinson's disease model mouse. Put plainly: Potentiating effect of levodopa-induced hyperactivity in reserpine-induced Parkinson's disease model mouse. The settings on record: Examples 12.5 or 25 mg/kg oral; rasagiline 3 or 10 mg/kg; with levodopa 200 mg/kg i.p. The format is in vivo. The protocol: Dopamine-depleted mice due to reserpine treatment are model mice of akinesia symptoms in Parkinson's disease, said symptoms are relieved with levodopa (L-DOPA). The effect of the present compounds for potentiating the levodopa's effect was tested.
In the present test, male Crl: CD1 (ICR) mice (CHARLES RIVER LABORATORIES JAPAN, INC.) were used. 20-24 hours before starting the movement measurement, reserpine (3 mg/kg) was intraperitoneally administered to the mouse. One hour before starting the movement measurement, the present compound (12-.5 mg/kg or 25 mg/kg of. Examples 1, 2, 3, 4, and 5) was orally administered to the mouse. Shortly before starting the movement measurement, levodopa (200 mg/kg) with benserazide whose amount was ¼ of levodopa in free form was intraperitoneally administered to the mouse. The movement measurement was carried out for 90 minutes, and each total movement was compared.

The subject of assay [2] is rat sleep electroencephalogram. Put plainly: Effect for sleeping stage/waking stage, rat sleep electroencephalogram. The format is in vivo. The settings on record: 30 or 100 mg/kg oral, 6 hours. The protocol:
As non-motor symptoms in Parkinson's disease, sleep disorder such as insomnia (e.g. difficulty falling asleep, nocturnal awakening, etc.) is known. It is important to improve sleeping quality. The effect of the present compounds for sleep was evaluated by measuring rat sleep electroencephalogram.
In the present test, male Crlj: WI rats (CHARLES RIVER LABORATORIES JAPAN, INC.) were used. Under anesthesia, a radiofrequency transmitter (HD-S02, Data Science International, Inc.) was set in the peritoneal cavity of the rat, and two electrodes for measuring electroencephalogram were stereotaxically placed in the skull (frontoparietal electrode: 2 mm ahead of bregma and 2 mm left from midline, parietal electrode: 5 mm behind bregma and 2 mm right from midline). An electrode for recording electromyogram was placed in the dorsal neck muscle. After more than one week as postoperative recuperation period, the rats were used in the sleep electroencephalogram measurement.
The compound of Example 13 (30 mg/kg or 100 mg/kg) was orally administered to the rat just before light phase, and the electroencephalogram and electromyogram of the rat were recorded at 500 Hz for 6 hours in a breeding cage in a soundproof box. The recorded signals were classified to 3 stages, wake/REM sleep/non-REM sleep every 10 seconds with a sleep analysis program Sleepsign (version 3, Kissei Comtec Co., Ltd.), and aggregated. Specifically, when the myoelectric response was beyond the threshold defined for each individual animal, it was classified as wake, and otherwise it was classified as sleep. In the sleep, when the power value at delta wave (0.5-4 Hz) of EEG-frequency component was beyond the threshold defined for each individual beforehand, it was classified as non-REM sleep. When the power value at theta wave (4-8 Hz) was beyond 40% of the total power value at 0.5-80 Hz, it was classified as REM sleep.

A further assay has as its system cerebellar Purkinje cell. Put plainly: Effect for inhibiting neuronal firing in mouse brain slice (patch-clamp). The format is cell-based. The following applies: 500 μmol/L. The protocol: (§1) The action of the present compound for regulating the voluntary firing frequency in subthalamic nucleus neuron and cerebellar Purkinje cell was measured by patch-clamp method in mouse brain slice. […] As stimulus protocol, a current of +200 pA or +400 pA was added thereto for 400 milliseconds and the raised action potential was recorded. […] The stimulus-controlled and digitized action potential was recorded with Clampex software (Version 10.2) (all instruments are from Molecular Device Corporation, Union City, Calif., USA). […] In the measurement after adding the compound of Example 13, the action potential was recorded after the record solution containing the compound of Example 13 was perfused for more than 10 minutes. In the analyses, the percentage of the spike firing frequency (Hz) for the current stimulation after adding the compound of Example 13, per the spike firing frequency (Hz) for the current stimulation before adding the compound of Example 13, was calculated, which was defined as a change rate of spike firing frequency in each cell.
A general note: In patch-clamp work, channel activity is measured electrically.

Assay [3] relates to subthalamic nucleus neuron. The assay is described as above. The settings on record: 500 μmol/L. The format is cell-based. The method, then:
as §1

In the case of `CC(c1noc2ccccc12)S(N)(=O)=O` (centres unmarked) [Example 1, 1-(Benzo[d]isoxazol-3-yl)ethane-1-sulfonamide], the “levodopa-induced hyperactivity (total movement, 90 minutes)” value in assay [1] is “significantly-potentiating effect of levodopa-induced hyperactivity”.
`C[C@H](c1noc2ccccc12)S(N)(=O)=O` [Example 13, (1R)-1-(1,2-benzoxazol-3-yl)ethane-1-sulfonamide]: in assay [2], the REM sleep latency entry is “tended to elongate”, the REM sleep time entry was “significantly shortened”, the non-REM sleep latency entry is recorded as “significantly shortened” and the non-REM sleep time result is “increased”. Besides, in assay [2], the waking time result is reported as “significantly shortened”. In addition, in the assay on cerebellar Purkinje cell, the “spike firing frequency in cerebellar Purkinje cell” value is listed as “significantly inhibited the spike firing frequency”. The “spike firing frequency in subthalamic nucleus neuron” value in assay [3] is recorded as “significantly inhibited the spike firing frequency”.
